Values of other authors as cited in article PMC8951750, “In Vitro Anticancer and Cancer-Preventive Activity of New Triterpene Glycosides from the Far Eastern Starfish Solaster pacificus” (Marine Drugs, 2022).

Legend:
Conditions in all cases: non-toxic concentration of 0.5 μM; cited from earlier work
melanoma RPMI-7951 cells = tested on: melanoma RPMI-7951 cells
[1] = tested on: colorectal carcinoma HT-29 cells
[2] = tested on: breast cancer MDA-MB-231 cells

CO[C@@H]1[C@@H](O)[C@H](O[C@@H]2[C@@H](O)[C@H](O[C@H]3[C@H](O)[C@@H](O[C@@H]4OC[C@@H](O)[C@H](O)[C@H]4O)[C@H](O[C@H]4[C@H](O[C@H]5CC[C@]6(C)[C@@H]7CCC89C(=O)O[C@@](C)(/C=C\C=C(C)C)[C@H]8[C@@H](OC(C)=O)C[C@@]9(C)C7=CC[C@H]6C5(C)C)OC[C@@H](O)[C@@H]4O)O[C@@H]3C)O[C@H](CO)[C@H]2O)OC[C@H]1O (stereo partly drawn) [cucumarioside C1]
almost completely suppressed: suppression of colony formation of RPMI-7951 cells (melanoma RPMI-7951 cells) | suppression of colony formation of HT-29 cells [1] | suppression of colony formation of MDA-MB-231 cells [2]

COC1C(O)COC(OC2C(O)C(CO)OC(OC3C(C)OC(OC4C(OC5CCC6(C)C7CCC89C(=O)OC(C)(/C=C/C=C(C)C)C8C(OC(C)=O)CC9(C)C7=CCC6C5(C)C)OCC(O)C4O)C(OC4OCC(O)C(O)C4O)C3O)C2O)C1O (stereo not drawn) [cucumarioside C2]
almost completely suppressed: suppression of colony formation of RPMI-7951 cells (melanoma RPMI-7951 cells) | suppression of colony formation of HT-29 cells [1] | suppression of colony formation of MDA-MB-231 cells [2]

pacificusoside C
almost completely suppressed: suppression of colony formation of RPMI-7951 cells (melanoma RPMI-7951 cells) | suppression of colony formation of HT-29 cells [1] | suppression of colony formation of MDA-MB-231 cells [2]
